Measurements taken from US12448394B2, “Heterocyclic pyrazole derivatives as type III receptor tyrosine kinase inhibitors” (DEVELOPMENT CENTER FOR BIOTECHNOLOGY, priority 2019, dated 2025).
Where a chain is given by its changes, count along the chain named. pIC50: −log10 of the molar value.

How the values were obtained:
FLT3 kinase = molecular target: T1, FLT3 kinase (Homo sapiens, UniProt P36888); assay: FLT3 kinase assay (AlphaScreen); type: biochemical; conditions: read-out: Ranking of IC50 values, FLT3
T1 construct: purchased SignalChem
T1 sequence (P36888 27-993): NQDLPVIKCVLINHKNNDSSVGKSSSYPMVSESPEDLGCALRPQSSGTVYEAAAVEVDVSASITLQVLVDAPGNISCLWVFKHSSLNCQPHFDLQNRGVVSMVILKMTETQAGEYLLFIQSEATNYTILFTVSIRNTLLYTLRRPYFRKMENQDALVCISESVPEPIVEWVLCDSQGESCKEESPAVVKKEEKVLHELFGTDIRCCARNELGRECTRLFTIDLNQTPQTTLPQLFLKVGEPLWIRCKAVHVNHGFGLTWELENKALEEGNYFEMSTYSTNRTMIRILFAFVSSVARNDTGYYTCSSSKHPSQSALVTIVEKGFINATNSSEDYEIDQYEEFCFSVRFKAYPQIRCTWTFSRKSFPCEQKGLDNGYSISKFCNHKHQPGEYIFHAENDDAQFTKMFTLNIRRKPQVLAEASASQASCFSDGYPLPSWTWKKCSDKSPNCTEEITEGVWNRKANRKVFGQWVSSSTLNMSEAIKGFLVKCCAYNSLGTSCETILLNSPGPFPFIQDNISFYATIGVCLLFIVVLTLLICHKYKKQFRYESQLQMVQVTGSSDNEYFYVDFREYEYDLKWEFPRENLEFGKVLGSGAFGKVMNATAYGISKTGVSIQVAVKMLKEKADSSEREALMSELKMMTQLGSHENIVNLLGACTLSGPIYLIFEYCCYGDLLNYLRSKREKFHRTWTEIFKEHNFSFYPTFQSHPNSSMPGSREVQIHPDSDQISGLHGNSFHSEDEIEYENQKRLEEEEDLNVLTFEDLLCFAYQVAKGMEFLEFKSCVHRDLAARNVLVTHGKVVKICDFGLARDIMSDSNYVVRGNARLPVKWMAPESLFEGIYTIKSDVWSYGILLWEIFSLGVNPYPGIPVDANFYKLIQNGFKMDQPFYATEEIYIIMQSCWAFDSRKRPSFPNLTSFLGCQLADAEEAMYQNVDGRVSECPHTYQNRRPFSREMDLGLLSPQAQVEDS
Description: (§1) Inhibition of FLT3 kinase activity by a test compound disclosed herein was estimated by AlphaScreen (PerkinElmer, Akron, Ohio, USA). Standard assay conditions were 1.5 ng of recombinant FLT3 kinase (SignalChem, Richmond, BC, Canada) with 6 ng Biotin-conjugated Poly-(Glu 4: Tyr 1) (Cisbio, Bedford, MA, USA) in the assay buffer (10 μM ATP, 10 mM MOPs, pH7.0, 0.21 mM EDTA, 0.5% glycerol, 1 mg/mL BSA, 0.01% 2-mercaptoethanol, 0.001% Brij35, 10 mM MgCl2) in a final volume of 25 μL. Reactions were incubated at 30° C. for 30 min and stopped by adding 5 μL of 50 mM EDTA. Analysis of resulting product using an AlphaScreen kit and counted with Enspire Alpha (PerkinElmer, Waltham, MA, USA). […] The IC50 values of inhibitors were determined after carrying out assays with each compound at serially diluted concentrations in duplication. The results were analyzed using linear regression software (GraphPad Prism 5; GraphPad Software Inc.)

FLT3-D835Y mutant kinase = molecular target: T2, FLT3-D835Y mutant kinase (Homo sapiens, UniProt P36888, D835Y); assay: FLT3-D835Y mutant kinase assay (AlphaScreen); type: biochemical; conditions: read-out: Ranking of IC50 values, FLT3-D835Y
T2 construct: purchased SignalChem
T2 sequence (P36888 27-993 D835Y): T1 sequence (P36888 27-993) with D809Y
Description: as §1, with “FLT3-D835Y mutant” for “FLT3”, “(PerkinElmer).” for “(PerkinElmer, Akron, Ohio, USA).”, “1” for “1.5”, “(SignalChem)” for “(SignalChem, Richmond, BC, Canada)”, “(Cisbio)” for “(Cisbio, Bedford, MA, USA)”, “(PerkinElmer).” for “(PerkinElmer, Waltham, MA, USA).”

PDGFRα kinase = molecular target: T3, PDGFRα kinase (Homo sapiens, UniProt P16234); assay: PDGFRα kinase assay (AlphaScreen); type: biochemical; conditions: read-out: Ranking of IC50 values, PDGFRα
T3 construct: purchased SignalChem
T3 sequence (P16234 24-1089): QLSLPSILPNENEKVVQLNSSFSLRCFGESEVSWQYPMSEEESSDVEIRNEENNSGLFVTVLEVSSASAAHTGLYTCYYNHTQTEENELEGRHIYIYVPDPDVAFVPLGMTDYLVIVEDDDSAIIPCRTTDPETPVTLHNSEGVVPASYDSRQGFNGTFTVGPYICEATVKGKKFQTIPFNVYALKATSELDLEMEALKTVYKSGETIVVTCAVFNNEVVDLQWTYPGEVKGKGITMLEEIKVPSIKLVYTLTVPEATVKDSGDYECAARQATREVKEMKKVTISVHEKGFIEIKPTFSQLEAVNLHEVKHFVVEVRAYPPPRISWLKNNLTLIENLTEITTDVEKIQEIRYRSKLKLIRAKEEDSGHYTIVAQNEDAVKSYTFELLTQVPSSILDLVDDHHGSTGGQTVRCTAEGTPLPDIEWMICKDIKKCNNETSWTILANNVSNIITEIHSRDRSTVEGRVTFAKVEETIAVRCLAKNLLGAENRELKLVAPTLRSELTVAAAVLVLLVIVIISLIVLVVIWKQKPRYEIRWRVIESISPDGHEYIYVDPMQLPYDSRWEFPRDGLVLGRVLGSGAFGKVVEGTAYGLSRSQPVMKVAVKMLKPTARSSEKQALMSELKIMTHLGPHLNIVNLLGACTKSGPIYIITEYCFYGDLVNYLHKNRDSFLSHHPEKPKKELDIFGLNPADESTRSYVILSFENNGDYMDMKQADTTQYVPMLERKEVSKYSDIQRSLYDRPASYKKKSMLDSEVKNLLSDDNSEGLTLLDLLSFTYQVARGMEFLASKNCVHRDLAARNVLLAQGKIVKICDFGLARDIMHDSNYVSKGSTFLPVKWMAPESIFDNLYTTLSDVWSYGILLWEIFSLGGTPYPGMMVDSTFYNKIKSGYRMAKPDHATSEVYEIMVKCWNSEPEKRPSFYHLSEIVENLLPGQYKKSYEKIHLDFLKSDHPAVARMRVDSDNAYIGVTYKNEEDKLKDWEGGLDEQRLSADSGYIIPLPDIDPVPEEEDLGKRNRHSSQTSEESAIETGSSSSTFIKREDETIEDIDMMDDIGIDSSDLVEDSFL
Description: Inhibition of PDGFRα kinase activity by a test compound disclosed herein was estimated by AlphaScreen (PerkinElmer). Standard assay conditions were 1.5 ng of recombinant PDGFRα kinase (SignalChem) with 6 ng Biotin-conjugated Poly-(Glu 4: Tyr 1) (Cisbio) in the assay buffer (10 μM ATP, 10 mM MOPs, pH 7.0, 0.21 mM EDTA, 0.5% glycerol, 1 mg/mL BSA, 0.01% 2-mercaptoethanol, 0.001% Brij35, 10 mM MgCl2) in a final volume of 25 μL. Reactions were incubated at 30° C. for 30 min and stopped by adding […] of 50 mM EDTA. Analysis of resulting product using an AlphaScreen kit and counted with Enspire Alpha (PerkinElmer). […] The IC50 values of inhibitors were determined after carrying out assays with each compound at serially diluted concentrations in duplication. The results were analyzed using linear regression software (GraphPad Prism 5; GraphPad Software Inc.)

MET kinase = molecular target: T4, MET kinase (Homo sapiens, UniProt P08581); assay: MET kinase assay (AlphaScreen, counter screen); type: biochemical; conditions: read-out: Ranking of IC50 values, MET
T4 construct: purchased SignalChem
T4 sequence (P08581 25-1390): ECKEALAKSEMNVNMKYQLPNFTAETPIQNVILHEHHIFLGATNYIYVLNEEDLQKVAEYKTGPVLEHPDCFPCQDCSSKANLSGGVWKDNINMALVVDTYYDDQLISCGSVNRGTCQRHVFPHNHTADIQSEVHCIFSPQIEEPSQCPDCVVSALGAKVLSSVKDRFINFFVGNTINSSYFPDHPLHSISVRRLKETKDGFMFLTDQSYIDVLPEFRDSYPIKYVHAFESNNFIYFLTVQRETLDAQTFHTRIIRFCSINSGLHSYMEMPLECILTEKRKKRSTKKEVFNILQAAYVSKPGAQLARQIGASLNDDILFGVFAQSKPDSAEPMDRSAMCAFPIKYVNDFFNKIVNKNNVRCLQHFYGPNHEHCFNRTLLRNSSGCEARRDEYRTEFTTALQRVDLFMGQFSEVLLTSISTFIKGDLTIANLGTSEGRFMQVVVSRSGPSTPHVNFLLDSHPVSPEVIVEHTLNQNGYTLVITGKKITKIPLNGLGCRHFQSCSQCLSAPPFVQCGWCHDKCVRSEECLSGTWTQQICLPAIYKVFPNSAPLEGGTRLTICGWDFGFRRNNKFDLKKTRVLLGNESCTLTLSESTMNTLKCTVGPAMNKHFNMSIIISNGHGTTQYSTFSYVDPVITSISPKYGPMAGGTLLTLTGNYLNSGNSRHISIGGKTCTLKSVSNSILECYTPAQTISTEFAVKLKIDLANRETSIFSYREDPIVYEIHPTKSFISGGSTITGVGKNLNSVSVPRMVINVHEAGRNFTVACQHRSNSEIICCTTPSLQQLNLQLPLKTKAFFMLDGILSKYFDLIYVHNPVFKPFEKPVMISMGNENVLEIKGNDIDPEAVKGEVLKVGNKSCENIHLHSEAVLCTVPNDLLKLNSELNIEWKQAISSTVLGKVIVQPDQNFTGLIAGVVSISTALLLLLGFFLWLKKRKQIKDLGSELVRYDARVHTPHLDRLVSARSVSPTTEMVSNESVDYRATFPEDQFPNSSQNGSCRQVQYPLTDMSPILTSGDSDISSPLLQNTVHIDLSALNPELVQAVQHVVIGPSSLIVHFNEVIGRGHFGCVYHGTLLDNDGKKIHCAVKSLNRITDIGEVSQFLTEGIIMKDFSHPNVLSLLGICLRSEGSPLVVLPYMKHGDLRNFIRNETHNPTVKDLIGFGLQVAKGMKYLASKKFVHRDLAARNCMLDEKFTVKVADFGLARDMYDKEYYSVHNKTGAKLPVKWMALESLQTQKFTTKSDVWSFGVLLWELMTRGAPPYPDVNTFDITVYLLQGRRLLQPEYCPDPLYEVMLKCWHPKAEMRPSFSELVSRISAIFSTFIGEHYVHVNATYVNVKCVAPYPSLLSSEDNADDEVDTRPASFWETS
Description: Because MET kinase belonged to Class VIII RTK family have one transmembrane a chain linked with one extracellular β chain which is different form Class III RTK family with 5 Immunoglobin-like extracellular domains. Standard assay conditions were 1 ng of recombinant MET kinase (SignalChem) with 3 ng Biotin-conjugated Poly-(Glu 4: Tyr 1) (Cisbio) in the assay buffer ([…], 10 mM MOPs, pH 7.0, 0.21 mM EDTA, 0.5% glycerol, 1 mg/mL BSA, 0.01% 2-mercaptoethanol, 0.001% Brij35, 10 mM MgCl2) in a final volume of 25 μL. Reactions were incubated at 30° C. for 45 min and stopped by adding 5 μL of 50 mM EDTA. Analysis of resulting product using an AlphaScreen kit and counted with Enspire Alpha (PerkinElmer). […] The IC50 values of inhibitors were determined after carrying out assays with each compound at serially diluted concentrations in duplication. The results were analyzed using linear regression software (GraphPad Prism 5; GraphPad Software Inc.)

[1] = tested on: experimental autoimmune encephalomyelitis (EAE); conditions: mouse model for multiple sclerosis; cited from earlier work

Row | pIC50 (FLT3 kinase) | pIC50 (FLT3-D835Y mutant kinase) | pIC50 (PDGFRα kinase) | pIC50 (MET kinase) | Structure (SMILES) | reducing myelin loss in EAE [1]
1 | 8.00 to 9.00 | 8.00 to 9.00 | 8.00 to 9.00 | < 6.00 | Brc1n[nH]c2cc(-c3n[nH]c4c3Cc3sc(-c5ccc(CN6CCOCC6)cc5)cc3-4)ccc12 [Compound 68, 4-(4-(3-(3-bromo-1H-indazol-6-yl)-1,4-dihydro-thieno[2′,3′:4,5]cyclopenta [1,2-c]pyrazol-6-yl)benzyl)morpholine] | 
2 |  |  |  |  | C[C@]12O[C@H](C[C@]1(O)CO)n1c3ccccc3c3c4c(c5c6ccccc6n2c5c31)CNC4=O [CEP-701] | effective in reducing myelin loss
